This is an account of results in article PMC6739813, “Structures of the Neisseria meningitides methionine‐binding protein MetQ in substrate‐free form and bound to L‐ and D‐methionine isomers” (Protein Science : A Publication of the Protein Society, 2019).

Assay [1] addresses T1, MetQ (methionine-binding protein) (Neisseria meningitidis, UniProt Q9JPG4, N238A).
T1 construct: gene gna1946
T1 sequence (Q9JPG4 43-287 N238A): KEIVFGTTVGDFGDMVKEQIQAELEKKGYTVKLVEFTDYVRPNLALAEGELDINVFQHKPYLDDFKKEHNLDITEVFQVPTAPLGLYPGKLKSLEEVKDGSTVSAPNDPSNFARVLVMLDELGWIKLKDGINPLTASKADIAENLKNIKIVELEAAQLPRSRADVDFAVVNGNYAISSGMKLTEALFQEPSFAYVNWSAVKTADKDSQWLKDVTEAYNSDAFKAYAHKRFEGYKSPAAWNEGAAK
Nature of the assay: ITC. For orientation: ITC needs no label: the signal is the heat of the interaction.

Assay [2] has as its target T2, MetQ (methionine-binding protein) (Neisseria meningitidis, UniProt Q9JPG4).
T2 construct: gene gna1946
The experiment in a line: ITC; crystal structure at […] Å.

The target in assay [3] is T2, MetQ (methionine-binding protein). Nature of the assay: ITC (displacement titration with D-methionine); crystal structure at […] Å.

As for `CSCC[C@@H](N)C(=O)O` [D-methionine], the Kd came out at 240 µM in assay [1] and 3.5 µM in assay [2].

In the case of `CSCC[C@H](N)C(=O)O` [L-methionine], the results for the Kd in assay [3] and in assay [1] were 0.0002 µM and 78 µM, respectively.

One may read the Kd as the concentration at which binding is half-saturated.
